The numbers were not newly measured in patent US20050096390A1 (priority 2003, published 2005), which cites them from elsewhere.

The conditions of data set [1]: pH of 7.0.
The conditions of data set [2]: 160 mg fenofibrate tablets, typical average blood plasma sample.

For the compound `CC[C@H](C)C(=O)O[C@H]1C[C@H](O)C=C2C=C[C@H](C)[C@H](CC[C@@H](O)C[C@@H](O)CC(=O)[O-])[C@H]21.[Na+]` (relative stereo) [Pravastatin sodium, 1-naphthalene-heptanoic acid, 1,2,6,7,8,8a-hexahydro-(beta),(beta),6-trihydroxy-2-methyl-8-(2-methyl-1-oxobutoxy)-, monosodium salt, [1S-[1(alpha)((beta)S*,(beta)S*),2(alpha),6(alpha), 8(beta)(R*),8a(alpha)]]-], the solubility in water is reported as over 300 mg/mL. Further, the “solubility in acetone, acetonitrile, chloroform, and ether” value (acetone, acetonitrile, chloroform, ether) was “practically insoluble”. The solubility in isopropanol entry (isopropanol) is on record as “slightly soluble”. In addition, under “methanol”, the solubility in methanol was over 300 mg/mL. The “partition coefficient (octanol/water)” value in data set [1] is listed as 0.59.

Consider `CC(C)OC(=O)C(C)(C)Oc1ccc(C(=O)c2ccc(Cl)cc2)cc1` [Fenofibrate], for which, in data set [2], the AUC0-24 of fenofibrate result is “about 118,300 h·ng/mL”.

On to `CC[C@H](C)C(=O)O[C@H]1C[C@H](O)C=C2C=C[C@H](C)[C@H](CC[C@@H](O)C[C@@H](O)CC(=O)O)[C@H]21` [Pravastatin], for which the solubility in water result is listed as “sparingly soluble”.
